Literature values in US10149395B2, “Water-based organic solderability preservative, and electronic board and surface treatment method using the same” (TAMURA CORPORATION, priority 2016, dated 2018).

Details: at 20 degrees C.

COC(C)COC(C)COC(C)CO (stereo not shown) [Organic solvent A, tripropylene glycol monomethyl ether]
solubility to water: miscible in all proportions

CCCCOCC(C)OCC(C)OCC(C)O (stereo not shown) [Organic solvent H, butylpropylene triglycol]
solubility to water: 0.4 g/100 g

OCC1CCCO1 (stereo not shown) [Organic solvent E, tetrahydrofurfuryl alcohol]
solubility to water: miscible in all proportions

CCCCOCCOCCOCCCC [Organic solvent I, diethylene glycol dibutylether]
solubility to water: 0.3 g/100 g

COCC(C)OC(C)=O (stereo not shown) [Organic solvent F, propylene glycol monomethyl ether acetate]
solubility to water: 18.5 g/100 g

CC(C)O [Organic solvent K, isopropyl alcohol]
solubility to water: miscible in all proportions

CCO [Organic solvent J, ethyl alcohol]
solubility to water: miscible in all proportions

OCCOc1ccccc1 [Organic solvent G, phenyl glycol]
solubility to water: 2.7 g/100 g

COCCOCCOCCOCCOC [Organic solvent D, tetraethylene glycol dimethyl ether]
solubility to water: miscible in all proportions

COCC(C)O (stereo not shown) [Organic solvent C, propylene glycol monomethyl ether]
solubility to water: miscible in all proportions
